Here are results for 26 compounds from patent publication US8680275B2, “Fused heterocyclic compounds as orexin receptor modulators” (Janssen Pharmaceutica NV, priority 2009, dated 2014).

Each structure is given as a SMILES string. Read-outs that look alike come from different tables or passages of the source. Some results are limits rather than exact numbers.

For experiment [1], the target named is human orexin-2 receptor (Homo sapiens (Human), UniProt O43614). The experiment can be described thus: Human orexin 2 receptor radioligand binding ([3H]-EMPA competition). Particulars: HEK293 cells stably expressing human orexin-2 receptor; [3H]-EMPA 5 nM final; read-out: OR-2 Ki. In a few lines: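 Competition binding on HEK293 cells stably expressing human orexin-2 receptor, using 5 nM final [3H]-EMPA in PBS, compounds 0.1 nM to 10 μM (DMSO ≤0.1%). 60 min at room temperature, then filtration and scintillation counting; nonspecific binding defined with 10 μM of a reference antagonist.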

The target of experiment [2] is human orexin 1 receptor (Homo sapiens (Human), UniProt O43613). The experiment can be described thus: Human orexin 1 receptor radioligand binding ([3H]-SB674042 competition). To be noted: read-out: OR-1 Ki. In a few lines:
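CHO cells stably expressing human OX1R incubated 60 min at room temperature with [3H]-SB674042 and compounds (7 concentrations, 0.1 nM–10 μM; DMSO ≤0.1%) in PBS. Nonspecific binding defined with 10 μM of a reference urea antagonist; bound radioactivity measured by filtration and scintillation counting.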

[3] abbreviates: CHO cells stably expressing human orexin 1 receptor, [3H]-SB674042 4 nM final.

Chain of human orexin-2 receptor (O43614 whole entry): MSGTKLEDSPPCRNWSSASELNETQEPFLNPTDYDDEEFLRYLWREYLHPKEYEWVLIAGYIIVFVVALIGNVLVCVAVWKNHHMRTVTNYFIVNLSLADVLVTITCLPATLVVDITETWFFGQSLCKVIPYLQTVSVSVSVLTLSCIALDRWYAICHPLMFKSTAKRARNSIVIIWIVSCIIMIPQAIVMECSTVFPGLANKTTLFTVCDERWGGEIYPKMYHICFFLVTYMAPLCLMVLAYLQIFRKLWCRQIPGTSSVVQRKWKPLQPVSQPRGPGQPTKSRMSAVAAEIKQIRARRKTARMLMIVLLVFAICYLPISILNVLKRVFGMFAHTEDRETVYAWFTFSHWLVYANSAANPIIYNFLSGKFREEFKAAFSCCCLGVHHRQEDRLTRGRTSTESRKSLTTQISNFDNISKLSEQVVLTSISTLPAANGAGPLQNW
Chain of human orexin 1 receptor (O43613 whole entry): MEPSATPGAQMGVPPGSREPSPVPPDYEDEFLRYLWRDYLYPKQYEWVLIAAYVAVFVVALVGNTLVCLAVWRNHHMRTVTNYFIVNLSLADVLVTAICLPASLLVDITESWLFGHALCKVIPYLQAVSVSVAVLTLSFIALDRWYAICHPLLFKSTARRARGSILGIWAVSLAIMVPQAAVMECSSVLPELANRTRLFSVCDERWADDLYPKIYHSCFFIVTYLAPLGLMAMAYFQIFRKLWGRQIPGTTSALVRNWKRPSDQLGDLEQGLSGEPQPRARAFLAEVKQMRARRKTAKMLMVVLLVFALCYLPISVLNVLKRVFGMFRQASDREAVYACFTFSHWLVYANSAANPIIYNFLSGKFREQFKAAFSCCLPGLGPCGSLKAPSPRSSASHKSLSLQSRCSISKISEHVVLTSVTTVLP

`Cc1cc(C)nc(N2C[C@@H]3CCN(C(=O)c4ccc(C)nc4-n4ccnn4)C[C@@H]32)n1` [Example 88, (1R,6S)-8-(4,6-Dimethylpyrimidin-2-yl)-3-{[6-methyl-2-(1H-1,2,3-triazol-1-yl)pyridin-3-yl]carbonyl}-3,8-diazabicyclo[4.2.0]octane]: the Ki (commonly the equilibrium dissociation constant of an inhibitor or competing ligand from its target) in experiment [1] came to 234 nM; in experiment [2] (setting [3]) it was 8200 nM.
For `Cc1cc(C)nc(N2C[C@@H]3CCN(C(=O)c4cccnc4C(F)(F)F)C[C@@H]32)n1` [Example 89, (1R,6S)-8-(4,6-Dimethylpyrimidin-2-yl)-3-{[2-(trifluoromethyl)pyridin-3-yl]carbonyl}-3,8-diazabicyclo[4.2.0]octane], the Ki in experiment [1] was found to be 220 nM; in experiment [2] (setting [3]), 10000 nM.
On to `COc1ccc(C(=O)N2CC[C@H]3CN(c4nc(C)cc(C)n4)[C@H]3C2)c(-n2nccn2)c1` [Example 90, (1R,6S)-8-(4,6-Dimethylpyrimidin-2-yl)-3-{[4-methoxy-2-(2H-1,2,3-triazol-2-yl)phenyl]carbonyl}-3,8-diazabicyclo[4.2.0]octane], for which the Ki in experiment [1] is 150 nM; in experiment [2] (setting [3]) it was at least 10000 nM.
In the same order, the values of `Cc1cc(N2C[C@@H]3CCN(C(=O)c4ccc(C)nc4-n4ccnn4)C[C@@H]32)nc(C(F)(F)F)n1` [Example 91, (1R,6S)-3-{[6-Methyl-2-(1H-1,2,3-triazol-1-yl)pyridin-3-yl]carbonyl}-8-[6-methyl-2-(trifluoromethyl)pyrimidin-4-yl]-3,8-diazabicyclo[4.2.0]octane] are 520 nM and 5400 nM.
In the case of `Cc1cc(N2C[C@@H]3CCN(C(=O)c4c(F)cccc4-c4ncccn4)C[C@@H]32)nc(C(F)(F)F)n1` [Example 92, (1R,6S)-3-[(2-Fluoro-6-pyrimidin-2-ylphenyl)carbonyl]-8-[6-methyl-2-(trifluoromethyl)pyrimidin-4-yl]-3,8-diazabicyclo[4.2.0]octane], the figures for the inhibitory constant (Ki) in experiment [1] and in experiment [2] (setting [3]) were 84 nM and 220 nM, respectively.
On to `Cc1ccc(C(=O)N2CC[C@H]3CN(c4nccc(C(F)(F)F)n4)[C@H]3C2)c(-n2ccnn2)n1` [Example 93, (1R,6S)-3-{[6-Methyl-2-(1H-1,2,3-triazol-1-yl)pyridin-3-yl]carbonyl}-8-[4-(trifluoromethyl)pyrimidin-2-yl]-3,8-diazabicyclo[4.2.0]octane], for which the Ki in experiment [1] came to 230 nM; in experiment [2] (setting [3]) it was 3700 nM.
In the same order, the values of `O=C(c1cc(F)ccc1-n1nccn1)N1CC[C@H]2CN(c3nccc(C(F)(F)F)n3)[C@H]2C1` [Example 94, (1R,6S)-3-{[5-Fluoro-2-(2H-1,2,3-triazol-2-yl)phenyl]carbonyl}-8-[4-(trifluoromethyl)pyrimidin-2-yl]-3,8-diazabicyclo[4.2.0]octane] are 370 nM and 10000 nM.
Take `O=C(c1c(F)cccc1-n1nccn1)N1CC[C@H]2CN(c3nccc(C(F)(F)F)n3)[C@H]2C1` [Example 95, (1R,6S)-3-{[2-Fluoro-6-(2H-1,2,3-triazol-2-yl)phenyl]carbonyl}-8-[4-(trifluoromethyl)pyrimidin-2-yl]-3,8-diazabicyclo[4.2.0]octane]: the Ki in experiment [1] is 23 nM; in experiment [2] (setting [3]) it was 625 nM.
Regarding `Cc1cnc(C)c(N2C[C@@H]3CCN(C(=O)c4ccccc4-n4nccn4)C[C@@H]32)n1` [Example 96, (1R,6S)-8-(3,6-Dimethylpyrazin-2-yl)-3-{[2-(2H-1,2,3-triazol-2-yl)phenyl]carbonyl}-3,8-diazabicyclo[4.2.0]octane], the values for the Ki in experiment [1] and in experiment [2] (setting [3]) were 258 nM and 5840 nM, respectively.
Consider `Cc1cnc(C)c(N2C[C@@H]3CCN(C(=O)c4cc(F)ccc4-n4nccn4)C[C@@H]32)n1` [Example 97, (1R,6S)-8-(3,6-Dimethylpyrazin-2-yl)-3-{[5-fluoro-2-(2H-1,2,3-triazol-2-yl)phenyl]carbonyl}-3,8-diazabicyclo[4.2.0]octane], for which the Ki in experiment [1] turned out to be 1290 nM; in experiment [2] (setting [3]), 5020 nM.
In the same order, the values of `Cc1cnc(C)c(N2C[C@@H]3CCN(C(=O)c4c(F)cccc4-n4nccn4)C[C@@H]32)n1` [Example 98, (1R,6S)-8-(3,6-Dimethylpyrazin-2-yl)-3-{[2-fluoro-6-(2H-1,2,3-triazol-2-yl)phenyl]carbonyl}-3,8-diazabicyclo[4.2.0]octane] are 274 nM and 4920 nM.
Regarding `Cc1cnc(C)c(N2C[C@@H]3CCN(C(=O)c4cccc(F)c4-n4nccn4)C[C@@H]32)n1` [Example 99, (1R,6S)-8-(3,6-Dimethylpyrazin-2-yl)-3-{[3-fluoro-2-(2H-1,2,3-triazol-2-yl)phenyl]carbonyl}-3,8-diazabicyclo[4.2.0]octane], the Ki in experiment [1] came to 96 nM; in experiment [2] (setting [3]), 4140 nM.
Take `Cc1cnc(N2C[C@@H]3CCN(C(=O)c4ccccc4-n4nccn4)C[C@@H]32)cn1` [Example 100, (1R,6S)-8-(5-Methylpyrazin-2-yl)-3-{[2-(2H-1,2,3-triazol-2-yl)phenyl]carbonyl}-3,8-diazabicyclo[4.2.0]octane]: the Ki stood at 200 nM in experiment [1] and 8700 nM in experiment [2] (setting [3]).
As for `Cc1cnc(N2C[C@@H]3CCN(C(=O)c4c(F)cccc4-n4nccn4)C[C@@H]32)cn1` [Example 101, (1R,6S)-3-{[2-Fluoro-6-(2H-1,2,3-triazol-2-yl)phenyl]carbonyl}-8-(5-methylpyrazin-2-yl)-3,8-diazabicyclo[4.2.0]octane], the figures for the Ki in experiment [1] and in experiment [2] (setting [3]) were 190 nM and 6600 nM, respectively.
On the same counts, the results for `Cc1cnc(N2C[C@@H]3CCN(C(=O)c4ccc(F)cc4-n4nccn4)C[C@@H]32)cn1` [Example 102, (1R,6S)-3-{[4-Fluoro-2-(2H-1,2,3-triazol-2-yl)phenyl]carbonyl}-8-(5-methylpyrazin-2-yl)-3,8-diazabicyclo[4.2.0]octane] are 420 nM and 10000 nM.
As for `Cc1cnc(N2C[C@@H]3CCN(C(=O)c4cccc(F)c4-n4nccn4)C[C@@H]32)cn1` [Example 103, (1R,6S)-3-{[3-Fluoro-2-(2H-1,2,3-triazol-2-yl)phenyl]carbonyl}-8-(5-methylpyrazin-2-yl)-3,8-diazabicyclo[4.2.0]octane], the Ki in experiment [1] was found to be 360 nM; in experiment [2] it was 10000 nM.
For the compound `Cc1cnc(N2C[C@@H]3CCN(C(=O)c4cc(F)ccc4-n4nccn4)C[C@@H]32)cn1` [Example 104, (1R,6S)-3-{[5-Fluoro-2-(2H-1,2,3-triazol-2-yl)phenyl]carbonyl}-8-(5-methylpyrazin-2-yl)-3,8-diazabicyclo[4.2.0]octane], the Ki in experiment [1] turned out to be 342 nM; in experiment [2] (setting [3]), 3540 nM.
For the compound `Cc1nccnc1N1C[C@@H]2CCN(C(=O)c3ccccc3-n3nccn3)C[C@@H]21` [Example 105, (1R,6S)-8-(3-Methylpyrazin-2-yl)-3-{[2-(2H-1,2,3-triazol-2-yl)phenyl]carbonyl}-3,8-diazabicyclo[4.2.0]octane], the Ki in experiment [1] and in experiment [2] (setting [3]) was 10000 nM in each case.
In the case of `Cc1nccnc1N1C[C@@H]2CCN(C(=O)c3c(F)cccc3-n3nccn3)C[C@@H]21` [Example 106, (1R,6S)-3-{[2-Fluoro-6-(2H-1,2,3-triazol-2-yl)phenyl]carbonyl}-8-(3-methylpyrazin-2-yl)-3,8-diazabicyclo[4.2.0]octane], the Ki in experiment [1] and in experiment [2] (setting [3]) was 10000 nM in each case.
As to `Cc1nccnc1N1C[C@@H]2CCN(C(=O)c3ccc(F)cc3-n3nccn3)C[C@@H]21` [Example 108, (1R,6S)-3-{[4-Fluoro-2-(2H-1,2,3-triazol-2-yl)phenyl]carbonyl}-8-(3-methylpyrazin-2-yl)-3,8-diazabicyclo[4.2.0]octane], the Ki in experiment [1] and in experiment [2] (setting [3]) was 10000 nM in each case.
`Cc1cncc(N2C[C@@H]3CCN(C(=O)c4cccc(F)c4-n4nccn4)C[C@@H]32)n1` [Example 110, (1R,6S)-3-{[3-Fluoro-2-(2H-1,2,3-triazol-2-yl)phenyl]carbonyl}-8-(6-methylpyrazin-2-yl)-3,8-diazabicyclo[4.2.0]octane]: the results for the Ki in experiment [1] and in experiment [2] (setting [3]) were 220 nM and 10000 nM, respectively.
In the case of `Cc1cncc(N2C[C@@H]3CCN(C(=O)c4cc(F)ccc4-n4nccn4)C[C@@H]32)n1` [Example 111, (1R,6S)-3-{[5-Fluoro-2-(2H-1,2,3-triazol-2-yl)phenyl]carbonyl}-8-(6-methylpyrazin-2-yl)-3,8-diazabicyclo[4.2.0]octane], the Ki in experiment [1] was found to be 176 nM; in experiment [2] (setting [3]) it was 5000 nM.
On the same counts, the results for `Cc1cncc(N2C[C@@H]3CCN(C(=O)c4ccccc4-n4nccn4)C[C@@H]32)n1` [Example 112, (1R,6S)-8-(6-Methylpyrazin-2-yl)-3-{[2-(2H-1,2,3-triazol-2-yl)phenyl]carbonyl}-3,8-diazabicyclo[4.2.0]octane] are 115 nM and 1960 nM.
In the case of `Cc1cncc(N2C[C@@H]3CCN(C(=O)c4c(F)cccc4-n4nccn4)C[C@@H]32)n1` [Example 113, (1R,6S)-3-{[2-Fluoro-6-(2H-1,2,3-triazol-2-yl)phenyl]carbonyl}-8-(6-methylpyrazin-2-yl)-3,8-diazabicyclo[4.2.0]octane], the Ki in experiment [1] was 161 nM; in experiment [2] (setting [3]), 9000 nM.
`Cc1cncc(N2C[C@@H]3CCN(C(=O)c4ccc(F)cc4-n4nccn4)C[C@@H]32)n1` [Example 114, (1R,6S)-3-{[4-Fluoro-2-(2H-1,2,3-triazol-2-yl)phenyl]carbonyl}-8-(6-methylpyrazin-2-yl)-3,8-diazabicyclo[4.2.0]octane]: the results for the Ki in experiment [1] and in experiment [2] were 494 nM and 10000 nM, respectively.
In the case of `O=C(c1ccc(F)cc1-n1nccn1)N1CC[C@H]2CN(c3cnc4ccccc4n3)[C@H]2C1` [Example 115, 2-[(1R,6S)-3-{[4-Fluoro-2-(2H-1,2,3-triazol-2-yl)phenyl]carbonyl}-3,8-diazabicyclo[4.2.0]oct-8-yl]quinoxaline], the Ki was determined as 60 nM in experiment [1] and 177 nM in experiment [2] (setting [3]).
